Data as given in ChEMBL document CHEMBL4339199 (ACS Med Chem Lett, 2019).
The source made the active and inactive calls. The calls are words filed in the database; no cut-off is given here.

Key:
[1] = biological target: T1, Tyrosine-protein kinase JAK3 (Homo sapiens, UniProt P52333); assay: Inhibition of GST-tagged JAK3 (unknown origin) using fluoresceinated peptide as substrate measured after 3 hrs by electrophoresis method
T1 sequence (P52333 whole entry): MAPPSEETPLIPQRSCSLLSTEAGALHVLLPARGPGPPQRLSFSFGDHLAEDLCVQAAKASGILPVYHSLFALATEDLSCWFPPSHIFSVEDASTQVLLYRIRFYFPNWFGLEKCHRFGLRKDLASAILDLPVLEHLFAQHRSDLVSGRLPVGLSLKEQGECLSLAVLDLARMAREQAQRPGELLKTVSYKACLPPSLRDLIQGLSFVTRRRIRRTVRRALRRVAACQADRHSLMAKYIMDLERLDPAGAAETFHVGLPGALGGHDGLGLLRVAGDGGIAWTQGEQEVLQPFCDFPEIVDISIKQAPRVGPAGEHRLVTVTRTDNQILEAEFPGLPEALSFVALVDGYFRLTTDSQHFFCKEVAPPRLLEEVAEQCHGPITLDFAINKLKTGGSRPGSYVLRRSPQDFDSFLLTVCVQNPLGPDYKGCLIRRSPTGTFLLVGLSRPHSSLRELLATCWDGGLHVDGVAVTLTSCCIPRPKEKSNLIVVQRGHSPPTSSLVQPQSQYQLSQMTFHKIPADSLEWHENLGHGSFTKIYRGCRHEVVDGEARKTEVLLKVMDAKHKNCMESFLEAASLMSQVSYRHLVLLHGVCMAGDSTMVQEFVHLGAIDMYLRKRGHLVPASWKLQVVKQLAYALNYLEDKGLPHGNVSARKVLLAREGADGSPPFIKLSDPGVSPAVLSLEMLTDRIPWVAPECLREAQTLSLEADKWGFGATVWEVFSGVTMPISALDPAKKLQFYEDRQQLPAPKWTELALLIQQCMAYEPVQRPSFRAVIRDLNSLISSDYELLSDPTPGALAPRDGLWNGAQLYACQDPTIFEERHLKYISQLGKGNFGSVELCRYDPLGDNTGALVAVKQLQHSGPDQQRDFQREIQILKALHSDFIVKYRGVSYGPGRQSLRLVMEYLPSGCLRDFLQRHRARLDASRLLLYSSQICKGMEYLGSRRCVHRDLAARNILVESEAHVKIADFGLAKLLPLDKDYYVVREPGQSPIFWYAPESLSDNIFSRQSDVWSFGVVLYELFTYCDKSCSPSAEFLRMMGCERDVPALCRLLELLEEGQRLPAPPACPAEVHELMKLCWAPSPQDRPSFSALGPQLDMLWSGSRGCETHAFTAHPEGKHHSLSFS

[2] = biological target: Non-receptor tyrosine-protein kinase TYK2 (Homo sapiens, UniProt P29597); assay: Inhibition of […] TYK2 (unknown origin) using fluoresceinated peptide as substrate measured after 3 hrs by electrophoresis method
[3] = Octanol-water partition coefficient, log P of the compound at pH 6.5 by HPLC analysis; type: physicochemical
T-cell = assay: Inhibition of IL2-induced human PBMC-derived T cell proliferation preincubated for 60 mins followed by IL-2 stimulation and measured after 3 days by [3H]thymidine incorporation based topcount method; type: functional
[4] = biological target: Tyrosine-protein kinase JAK2 (Homo sapiens, UniProt O60674); assay: Inhibition of GST-tagged JAK2 (unknown origin) using fluoresceinated peptide as substrate measured after 3 hrs by electrophoresis method
[5] = Aqueous solubility of the compound; type: physicochemical; details: buffer
[6] = biological target: Tyrosine-protein kinase JAK1 (Homo sapiens, UniProt P23458); assay: Inhibition of GST-tagged JAK1 (unknown origin) using fluoresceinated peptide as substrate measured after 3 hrs by electrophoresis method
Blood = assay: Inhibition of IL2-induced IFNgamma production in CD3/CD28 antibody-stimulated human whole blood measured after 18 hrs by ELISA; type: functional, tissue-based
[7] = Lipophilicity, log P of the compound; type: physicochemical; details: octanol/water
[8] = Stability in mouse microsomes assessed as parent compound remaining measured after 10 mins; type: ADME, Microsome; details: read-out: Stability
[9] = Solubility of the compound in water; type: physicochemical; details: buffer
[10] = AUC in mouse at 40 mg/kg, po; type: ADME, organism-based; details: in vivo
Mus musculus [11] = assay: Antiinflammatory activity in DBA1 mouse model of collagen-induced inflammation assessed as reduction in rheumatoid arthritis score in paw administered daily via oral gavage for 21 days starting from 21 days post-immunization and measured 3 times every week following booster immunization; type: functional, organism-based
[12] = AUC in mouse at 10 mg/kg, po; type: ADME, organism-based; details: in vivo
[13] = Prodrug conversion in DBA1 mouse assessed as 4-((2R,3R)-l,3-Dihydroxybutan-2-ylamino)-6-phenylpyrrolo [ 1,2-b]pyridazine-3 carboxamide formation at 140 mg/kg, po administered via gavage; type: ADME, organism-based; details: in vivo
[14] = Solubility of the compound in water using amorphous compound; type: physicochemical; details: buffer
[15] = Solubility of the compound in 5%EtOH/5%TPGS/90%PEG300 formulation; type: physicochemical
[16] = Time at which plasma concentration stays above in vitro IC50 for inhibition of IL2-induced IFNgamma production in CD3/CD28 antibody-stimulated human whole blood in mouse at 10 mg/kg, po; type: organism-based; details: in vivo
[17] = Solubility of the compound in phosphate buffer using crystalline compound; type: physicochemical
[18] = Permeability of the compound by PAMPA; type: ADME
[19] = Cmax in mouse at 10 mg/kg, po; type: ADME, organism-based; design: dose 10 mg/kg, route oral; details: in vivo
[20] = Stability in rat liver microsomes; type: ADME, Microsome
[21] = Stability in mouse liver microsomes; type: ADME, Microsome
[22] = Cmax in mouse at 50 mg/kg, po administered as microsuspension formulation; type: ADME, organism-based; design: dose 50 mg/kg, route oral; details: in vivo
[23] = Stability in human liver microsomes; type: ADME, Microsome
Mus musculus [24] = assay: Antiinflammatory activity in DBA1 mouse model of collagen-induced inflammation assessed as reduction in rheumatoid arthritis score in paw at 6.6 mg/kg administered daily via oral gavage for 21 days starting from 21 days post-immunization and measured 3 times every week following booster immunization; type: functional, organism-based

Chain of Tyrosine-protein kinase JAK1 (P23458 whole entry): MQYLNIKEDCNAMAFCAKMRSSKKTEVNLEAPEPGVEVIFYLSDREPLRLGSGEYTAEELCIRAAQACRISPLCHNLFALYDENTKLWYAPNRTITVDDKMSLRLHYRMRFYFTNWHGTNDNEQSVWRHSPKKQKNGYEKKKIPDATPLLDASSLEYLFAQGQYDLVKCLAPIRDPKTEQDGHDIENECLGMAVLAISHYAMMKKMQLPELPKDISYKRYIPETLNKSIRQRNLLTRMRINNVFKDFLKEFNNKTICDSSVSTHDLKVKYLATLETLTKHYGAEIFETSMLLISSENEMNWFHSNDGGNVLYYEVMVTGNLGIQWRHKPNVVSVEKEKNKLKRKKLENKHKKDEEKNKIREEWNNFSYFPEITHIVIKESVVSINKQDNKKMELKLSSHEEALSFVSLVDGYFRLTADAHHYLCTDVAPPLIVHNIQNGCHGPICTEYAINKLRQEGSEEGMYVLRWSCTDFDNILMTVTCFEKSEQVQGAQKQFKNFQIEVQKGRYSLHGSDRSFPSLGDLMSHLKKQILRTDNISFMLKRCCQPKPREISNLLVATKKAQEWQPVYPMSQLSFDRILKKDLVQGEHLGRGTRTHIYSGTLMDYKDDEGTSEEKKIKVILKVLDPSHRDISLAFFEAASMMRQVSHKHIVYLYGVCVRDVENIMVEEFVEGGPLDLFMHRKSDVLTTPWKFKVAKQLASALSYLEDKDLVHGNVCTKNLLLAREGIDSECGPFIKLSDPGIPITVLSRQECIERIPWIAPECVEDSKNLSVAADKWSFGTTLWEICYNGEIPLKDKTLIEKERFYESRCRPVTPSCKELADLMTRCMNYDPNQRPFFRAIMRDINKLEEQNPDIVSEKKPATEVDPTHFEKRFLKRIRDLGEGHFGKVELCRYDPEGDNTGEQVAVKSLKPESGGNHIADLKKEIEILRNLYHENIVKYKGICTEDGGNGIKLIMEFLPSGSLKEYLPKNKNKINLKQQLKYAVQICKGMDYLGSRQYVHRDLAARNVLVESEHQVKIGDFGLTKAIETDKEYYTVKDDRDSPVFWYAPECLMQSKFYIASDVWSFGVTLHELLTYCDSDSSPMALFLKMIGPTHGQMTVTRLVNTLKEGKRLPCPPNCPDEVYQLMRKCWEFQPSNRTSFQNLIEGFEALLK
Chain of Tyrosine-protein kinase JAK2 (O60674 whole entry): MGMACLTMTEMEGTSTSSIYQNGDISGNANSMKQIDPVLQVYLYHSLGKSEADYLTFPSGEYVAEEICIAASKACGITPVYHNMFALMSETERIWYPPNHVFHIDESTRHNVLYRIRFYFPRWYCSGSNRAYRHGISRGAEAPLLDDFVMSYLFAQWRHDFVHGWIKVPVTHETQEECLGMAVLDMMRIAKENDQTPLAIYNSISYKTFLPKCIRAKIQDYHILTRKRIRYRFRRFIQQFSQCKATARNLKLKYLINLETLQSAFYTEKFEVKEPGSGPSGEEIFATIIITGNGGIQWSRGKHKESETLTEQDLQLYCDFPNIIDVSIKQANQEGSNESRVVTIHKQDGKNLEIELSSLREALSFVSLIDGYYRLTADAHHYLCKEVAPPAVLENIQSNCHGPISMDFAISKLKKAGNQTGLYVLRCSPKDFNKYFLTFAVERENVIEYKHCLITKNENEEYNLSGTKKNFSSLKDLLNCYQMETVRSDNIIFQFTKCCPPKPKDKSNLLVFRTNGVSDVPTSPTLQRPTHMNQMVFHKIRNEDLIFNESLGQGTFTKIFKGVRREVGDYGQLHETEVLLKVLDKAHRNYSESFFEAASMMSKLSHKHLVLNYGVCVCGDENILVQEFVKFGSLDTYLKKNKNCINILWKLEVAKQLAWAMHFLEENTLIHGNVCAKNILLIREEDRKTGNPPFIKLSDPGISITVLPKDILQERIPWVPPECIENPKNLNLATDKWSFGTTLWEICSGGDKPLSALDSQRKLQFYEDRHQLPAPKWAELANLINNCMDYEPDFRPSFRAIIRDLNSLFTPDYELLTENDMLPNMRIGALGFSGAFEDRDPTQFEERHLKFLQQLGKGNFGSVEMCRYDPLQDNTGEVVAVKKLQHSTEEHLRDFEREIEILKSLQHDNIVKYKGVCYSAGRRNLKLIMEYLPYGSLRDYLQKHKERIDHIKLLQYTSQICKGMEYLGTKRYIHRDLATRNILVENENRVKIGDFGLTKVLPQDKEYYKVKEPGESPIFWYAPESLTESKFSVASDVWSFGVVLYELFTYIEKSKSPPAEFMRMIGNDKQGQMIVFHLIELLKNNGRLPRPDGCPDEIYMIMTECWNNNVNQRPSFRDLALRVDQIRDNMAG
Chain of Non-receptor tyrosine-protein kinase TYK2 (P29597 whole entry): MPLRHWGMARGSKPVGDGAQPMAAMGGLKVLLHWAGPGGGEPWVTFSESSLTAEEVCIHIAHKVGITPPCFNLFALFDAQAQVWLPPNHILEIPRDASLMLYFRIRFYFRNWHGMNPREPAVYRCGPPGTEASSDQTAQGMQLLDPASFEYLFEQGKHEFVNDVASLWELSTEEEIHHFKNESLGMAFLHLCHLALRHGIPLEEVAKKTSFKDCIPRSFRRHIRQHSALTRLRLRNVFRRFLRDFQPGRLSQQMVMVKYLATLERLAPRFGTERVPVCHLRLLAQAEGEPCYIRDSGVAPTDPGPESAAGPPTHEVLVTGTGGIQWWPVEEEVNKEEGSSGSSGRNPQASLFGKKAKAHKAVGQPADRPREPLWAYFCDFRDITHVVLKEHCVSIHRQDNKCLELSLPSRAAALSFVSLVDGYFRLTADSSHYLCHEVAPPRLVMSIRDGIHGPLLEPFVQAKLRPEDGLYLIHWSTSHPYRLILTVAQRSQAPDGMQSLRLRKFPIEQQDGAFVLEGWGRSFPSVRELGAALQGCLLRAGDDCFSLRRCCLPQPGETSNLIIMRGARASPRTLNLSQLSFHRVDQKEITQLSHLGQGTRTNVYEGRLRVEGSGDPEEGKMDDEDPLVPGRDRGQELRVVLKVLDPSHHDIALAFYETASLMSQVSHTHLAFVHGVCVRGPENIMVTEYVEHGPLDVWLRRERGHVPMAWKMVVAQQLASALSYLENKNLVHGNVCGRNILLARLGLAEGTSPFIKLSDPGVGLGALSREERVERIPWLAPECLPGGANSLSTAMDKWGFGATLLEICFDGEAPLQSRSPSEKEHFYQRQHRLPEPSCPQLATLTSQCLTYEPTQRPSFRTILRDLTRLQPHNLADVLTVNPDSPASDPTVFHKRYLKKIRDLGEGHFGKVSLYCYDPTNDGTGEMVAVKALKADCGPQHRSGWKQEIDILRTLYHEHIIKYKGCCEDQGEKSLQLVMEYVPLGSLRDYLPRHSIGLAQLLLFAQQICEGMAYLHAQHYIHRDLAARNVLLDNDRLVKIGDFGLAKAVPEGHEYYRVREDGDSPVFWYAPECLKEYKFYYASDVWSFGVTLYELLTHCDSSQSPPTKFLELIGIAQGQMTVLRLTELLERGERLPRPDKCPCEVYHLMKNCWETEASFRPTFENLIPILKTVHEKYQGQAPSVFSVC

| SMILES | IC50 [1] [nM] | IC50 [2] [nM] | IC50 [4] [nM] | IC50 [6] [nM] | IC50 (Blood) [nM] | IC50 (T-cell; Homo sapiens, T-cell) [nM] | also measured |
| --- | --- | --- | --- | --- | --- | --- | --- |
| COc1ccc(-c2cc3c(N[C@H](CO)[C@@H](C)O)c(C(N)=O)cnn3c2)cn1 | 2 | 27 | 57 | – | – | 370 | logD [3]: 2.2 |
| CC(C)CNc1c(C(N)=O)cnn2cc(-c3ccccc3)cc12 | 4 | 63 | 160 | 30 | > 4000 | – | solubility [5]: < 1 µg/mL; logP [7]: 3.94; remaining at 10 min [8]: < 50% |
| CC(C)(C)CNc1c(C(N)=O)cnn2cc(-c3ccccc3)cc12 | 8 | 70 | 110 | 33 | > 4000 | – | solubility [5]: < 1 µg/mL; remaining at 10 min [8]: < 50% |
| COc1ccc(-c2cc3c(NC(CO)CO)c(C(N)=O)cnn3c2)cn1 | 38 | 330 | – | 200 | – | 11000 | – |
| COc1ccc(-c2cc3c(NC(CO)[C@H](O)C4CC4)c(C(N)=O)cnn3c2)cn1 (stereo in doubt; 19) | 2 | 130 | 45 | 21 | 730 | – | IC50 (T-cell; t-cell): 500 nM |
| NC(=O)c1cnn2cc(-c3ccccc3)cc2c1NC1CCCC1 | 5 | 20 | 50 | 13 | > 4000 | – | solubility [5]: < 1 µg/mL; remaining at 10 min [8]: < 50% |
| CC(C)CCNc1c(C(N)=O)cnn2cc(-c3ccccc3)cc12 | 11 | 160 | 220 | 110 | > 4000 | – | solubility [5]: < 1 µg/mL; logP [7]: 5.08; remaining at 10 min [8]: < 50% |
| C[C@@H](O)[C@@H](COP(=O)([O-])[O-])Nc1c(C(N)=O)cnn2cc(-c3ccccc3)cc12.[Na+].[Na+] | – | – | – | – | – | – | solubility [9]: Soluble; AUC [10]: 6 µM·h; Activity (Mus musculus [11]): Dose-dependent effect; AUC [12]: 1 µM·h; Drug metabolism [13]: Metabolite_Detected |
| COc1ccc(-c2cc3c(N[C@H](CO)CC4CC4)c(C(N)=O)cnn3c2)cn1 | 1 | 120 | 25 | 32 | > 4000 | 290 | – |
| COc1ccc(-c2cc3c(N[C@H](CO)CC(C)C)c(C(N)=O)cnn3c2)cn1 | 3 | 180 | 30 | 23 | 3900 | 190 | – |
| COc1ccc(-c2cc3c(NC(CO)[C@H](O)C4CC4)c(C(N)=O)cnn3c2)cn1 (stereo in doubt; 18) | 100 | 2000 | 1400 | 620 | – | – | IC50 (T-cell; t-cell): 4800 nM |
| C[C@@H]1CCN(C(=O)CC#N)C[C@@H]1N(C)c1ncnc2[nH]ccc12 | – | – | – | – | – | – | Activity (Mus musculus [24]): Active |

Further lines, with some results ahead:

| IC50 [1] [nM] | IC50 [2] [nM] | IC50 [4] [nM] | IC50 [6] [nM] | IC50 (Blood) [nM] | SMILES | IC50 (T-cell; Homo sapiens, T-cell) [nM] | also measured |
| --- | --- | --- | --- | --- | --- | --- | --- |
| 180 | 510 | 1700 | 110 | – | C[C@@H](O)[C@H](CO)Nc1c(C(N)=O)cnn2cc(-c3ccccc3)cc12 | 1800 | – |
| 15 | 150 | 190 | 40 | > 4000 | CC(C)Nc1c(C(N)=O)cnn2cc(-c3ccccc3)cc12 | – | solubility [5]: < 1 µg/mL; remaining at 10 min [8]: < 50% |
| 160 | 1300 | 1800 | 180 | – | C[C@H](O)[C@H](CO)Nc1c(C(N)=O)cnn2cc(-c3ccccc3)cc12 | 2000 | – |
| 13 | 210 | 370 | 38 | – | C[C@H](O)[C@@H](CO)Nc1c(C(N)=O)cnn2cc(-c3ccccc3)cc12 | 870 | – |
| – | 34 | 70 | 5 | 500 | C[C@@H](O)[C@@H](CO)Nc1c(C(N)=O)cnn2cc(-c3ccccc3)cc12 | 70 | solubility [14]: Insoluble; solubility [15]: Insoluble; Time [16]: 3 h; solubility [17]: Insoluble; permeability [18]: Permeable; logD [3]: 2.42; Cmax [19]: > 3000 nM; Stability [20]: Stable; Stability [21]: Stable; Cmax [22]: 100 nM; Stability [23]: Stable |
